Type in all cases: biochemical, Leishmania donovani
The subject of test [1] is T1, rLdEno (L. donovani enolase).
T1 construct: gene ENO; full-length ORF (PCR product 1290 bp), N-terminal 6xHis, pET-28a, E. coli C41(DE3), Ni-NTA
As to the kind of experiment: spectrophotometric at […] nm, Michaelis-Menten. To be noted: 20 mM Tris-HCl pH 7.5, 2 mM MgSO4, 75 mM KCl, 25°C; 0-7.5 mM PEP; reverse reaction.

In test [2] the test system is T2, rLdAld (L. donovani aldolase).
T2 construct: gene ALD; full-length ORF (PCR product 1125 bp), 6xHis tag, pET-28a, E. coli, purified on Ni-NTA
As to the kind of experiment: hydrazine assay at […] nm, Michaelis-Menten. To be noted: hydrazine sulfate as detection reagent; 0.1-7 mM substrate; pH and temperature not given.

For test [3], the system named is T1, rLdEno (L. donovani enolase). As to the kind of experiment: spectrophotometric PEP formation at […] nm, Michaelis-Menten. To be noted: 20 mM Tris-HCl pH 7.5, 2 mM MgSO4, 75 mM KCl, 25°C; 0-10 mM 2PGA.

In the case of `C=C(OP(=O)(O)O)C(=O)O` [Phosphoenol pyruvate], the Km in test [1] is 3370 µM.
As for `O=P(O)(O)OC[C@H]1OC(O)(COP(=O)(O)O)[C@@H](O)[C@@H]1O` (stereo partly drawn) [D-Fru-1,6-P2], the Km in test [2] came out at 2060 µM.
In the case of `O=C(O)[C@@H](CO)OP(=O)(O)O` [2-phosphoglycerate], the Km in test [3] came out at 1540 µM.

The term Km denotes the concentration of substrate that gives half-maximal velocity.

The values above are taken from paper PMC3901665, “Characterization of Glycolytic Enzymes - rAldolase and rEnolase of Leishmania donovani, Identified as Th1 Stimulatory Proteins, for Their Immunogenicity and Immunoprophylactic Efficacies against Experimental Visceral Leishmaniasis” (PLoS ONE, 2014).
